From patent US9315517B2, “Imidazol-piperidinyl derivatives as modulators of kinase activity” (Merck Patent GmbH, priority 2012, dated 2016) come the findings set out here.

One experiment has as its target T1, His-AKT (Full Length) (Homo sapiens, UniProt P31749).
T1 construct: 0.1 ng/μl His-AKT (Full Length); His; purchased Invitrogen P2999
Put plainly: AKT enzyme assay. It counts as biochemical. Particulars: enzyme inhibition; 160 uM ATP, 90 min at 25° C., Caliper mobility shift. As for the experimental part: (§1) The IC50 values reported for the compounds in the Experimental section were derived from the following protocol for the p70S6K and AKT enzyme assays.
A TTP Mosquito liquid handling instrument was used to place 125 nl of the appropriate concentration of inhibitor in 100% DMSO (for a dose response curve calculation) into each well of a 384-well plate. To this reaction components were added to a final volume of 12.5 μl: • 0.1 ng/μl His-AKT (Full Length), (Invitrogen, Part # P2999, Lot # 641228C). • 160 uM ATP (Fluke, 02055) • 1 mM DTT (Sigma, D0632) • 1 mM MgCl2 (Sigma, M1028) • 1 μM substrate peptide (sequence FITC-AHA-GRPRTSSFAEG-NH2), synthesized by Tufts Peptide Synthesis service. • 100 mM HEPES pH 7.5 (Calbiochem, 391338) • 0.015% Brij-35 (Sigma, B4184)
The reaction was incubated for 90 min at 25° C., and then stopped by the addition of 70 μl of Stop buffer (100 mM HEPES pH 7.5, 0.015% Brij-35, 10 mM EDTA (Sigma, E7889)).
The plate was read on a Caliper LC 3000 in an Off-Chip mobility shift assay format, using the following parameters for a 12-sipper chip: screening pressure −2.3 psi, upstream voltage −500, and downstream voltage −3000. These conditions caused unphosphorylated substrate and phosphorylated product peptide to resolve as separate peaks allowing direct measurement of percentage of conversion of substrate to product. The percent conversion was plotted against concentration of inhibitor to produce a sigmoidal dose response curve, from which an IC50 was calculated.

Experiment [1] addresses T2, P70S6K (T412E mutant, Millipore) (Homo sapiens, UniProt P23443, T412E).
T2 construct: purchased Millipore
Put plainly: P70S6K enzyme assay. It is filed as biochemical. The following applies: enzyme inhibition; 24 μM ATP, 90 min at 25° C., Caliper mobility shift. As for the experimental part:
as §1
P70S6K inhibitor compounds were diluted and plated in 96 well plates. A reaction mixture including the following components was then added to the compound plate to initiate the enzyme reaction; P70S6K (3 nM, T412E mutant, Millipore) was mixed with 24 μM ATP in an assay buffer containing 100 mM Hepes (pH 7.5), 5 mM MgCl2, 1 mM DTT, 0.015% Brij and 1 μM of the substrate peptide FITC-AHA-AKRRRLSSLRA-OH (derived from the S6 ribosomal protein sequence, FITC=fluorescein isothiocyanate, AHA=6-aminohexanoic acid). The reaction was incubated for 90 min at 25° C., before the addition of 10 mM EDTA to stop the reaction. The proportion of substrate and product (phosphorylated) peptide was analysed on a Caliper Life Sciences Lab Chip 3000, using a pressure of −1.4 psi, and upstream and downstream voltages of −3000 and −700 respectively. Product peaks were resolved before substrate peaks on the resulting chromatograms.

Usually IC50 stands for the concentration needed to halve the response being measured.

T2 sequence (P23443 whole entry T412E): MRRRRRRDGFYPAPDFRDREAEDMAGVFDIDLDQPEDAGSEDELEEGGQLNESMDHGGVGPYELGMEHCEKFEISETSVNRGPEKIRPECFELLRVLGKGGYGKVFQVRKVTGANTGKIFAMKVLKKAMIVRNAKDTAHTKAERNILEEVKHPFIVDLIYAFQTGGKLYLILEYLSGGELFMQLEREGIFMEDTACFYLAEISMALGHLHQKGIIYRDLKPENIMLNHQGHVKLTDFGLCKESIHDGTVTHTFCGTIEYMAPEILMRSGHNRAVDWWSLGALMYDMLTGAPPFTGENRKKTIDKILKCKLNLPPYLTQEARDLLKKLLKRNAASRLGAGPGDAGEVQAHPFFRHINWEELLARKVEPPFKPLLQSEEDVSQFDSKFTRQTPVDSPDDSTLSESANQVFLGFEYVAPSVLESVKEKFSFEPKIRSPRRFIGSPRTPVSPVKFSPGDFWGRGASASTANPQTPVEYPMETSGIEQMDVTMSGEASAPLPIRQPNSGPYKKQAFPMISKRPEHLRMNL
T1 sequence (P31749 whole entry): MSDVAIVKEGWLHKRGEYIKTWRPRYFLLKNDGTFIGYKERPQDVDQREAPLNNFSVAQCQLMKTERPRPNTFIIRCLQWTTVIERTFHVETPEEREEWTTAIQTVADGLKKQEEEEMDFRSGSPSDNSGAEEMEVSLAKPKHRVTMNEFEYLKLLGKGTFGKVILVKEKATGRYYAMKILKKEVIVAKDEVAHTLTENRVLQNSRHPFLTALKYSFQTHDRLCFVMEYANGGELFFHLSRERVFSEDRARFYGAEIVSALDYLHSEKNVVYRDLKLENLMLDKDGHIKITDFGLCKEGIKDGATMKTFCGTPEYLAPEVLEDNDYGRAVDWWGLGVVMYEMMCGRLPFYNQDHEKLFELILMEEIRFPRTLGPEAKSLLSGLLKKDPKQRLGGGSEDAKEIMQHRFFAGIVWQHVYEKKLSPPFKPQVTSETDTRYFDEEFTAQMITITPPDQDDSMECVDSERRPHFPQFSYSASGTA

For the compound `CN(C)CCn1cc(-c2cccnc2)nc1C1CCN(c2ncnc3c2NC(=O)CN3)CC1` [Compound A48, 4-{4-[4-(Pyridin-3-yl)-1-(2-dimethylamin-1-yl-ethyl)-1H-imidazol-2-yl]-piperidin-1-yl}-7,8-dihydro-5H-pteridin-6-one], the concentration for half-maximal inhibition (IC50) (at His-AKT (Full Length); in experiment [1]) was over 1000 nM in each case.
`Cc1cc(-c2cn(CCN3CCC3)c(C3CCN(c4ncnc5c4CCN5)CC3)n2)ccc1F` [Compound A29, 4-{4-[1-(2-Azetidin-1-yl-ethyl)-4-(4-fluoro-3-methyl-phenyl)-1H-imidazol-2-yl]-piperidin-1-yl}-6,7-dihydro-5H-pyrrolo[2,3-d]pyrimidine]: the IC50 (on His-AKT (Full Length); in experiment [1]) was under 25 nM throughout.
In the case of `CN(C)CCn1cc(-c2ccnc(C(F)(F)F)c2)nc1C1CCN(c2ncnc3c2OCCN3)CC1` [Compound A10, {2-[2-[1-(7,8-Dihydro-6H-pyrimido[5,4-b][1,4]oxazin-4-yl)-piperidin-4-yl]-4-(2-trifluoromethyl-pyridin-4-yl)-imidazol-1-yl]-ethyl}-dimethylamine], the concentration for half-maximal inhibition (IC50) on His-AKT (Full Length) is 26 to 100 nM; in experiment [1] it was under 25 nM.
For the compound `Cc1cc(-c2cn(CCN(C)C)c(C3CCN(c4ncnc5c4CCN5)CC3)n2)ccc1F` [Compound A24, {2-[2-[1-(6,7-Dihydro-5H-pyrrolo[2,3-d]pyrimidin-4-yl)-piperidin-4-yl]-4-(4-fluoro-3-methyl-phenyl)-imidazol-1-yl]-ethyl}-dimethylamine], the IC50 (on His-AKT (Full Length); in experiment [1]) was under 25 nM throughout.
`Cc1cc(-c2cn(CCN(C)C)c(C3CCN(c4ncnc5c4CCC5)CC3)n2)ccc1F` [Compound A15, {2-[2-[1-(6,7-Dihydro-5H-cyclopentapyrimidin-4-yl)-piperidin-4-yl]-4-(4-fluoro-3-methyl-phenyl)-imidazol-1-yl]-ethyl}-dimethylamine]: the 50% inhibitory concentration (IC50) at His-AKT (Full Length) is 101 to 500 nM; in experiment [1], under 25 nM.
For `CN(C)CCn1cc(-c2ccc(F)cc2)nc1C1CCN(c2ncnc3c2NC(=O)CN3)CC1` [Compound A50, 4-{4-[4-(4-FluoroPhenyl)-1-(2-dimethylamin-1-yl-ethyl)-1H-imidazol-2-yl]-piperidin-1-yl}-7,8-dihydro-5H-pteridin-6-one] the same measures were 501 to 1000 nM and 101 to 500 nM.
For `COc1cccc(-c2cn(CCN3CCCC3)c(C3CCN(c4ncnc5c4NC(=O)CN5)CC3)n2)c1` [Compound A60, 4-{4-[4-(3-MethoxyPhenyl)-1-(2-pyrrolidin-1-yl-ethyl)-1H-imidazol-2-yl]-piperidin-1-yl}-7,8-dihydro-5H-pteridin-6-one] the same measures were 101 to 500 nM and 101 to 500 nM.
For `Fc1ccc(-c2cn(CCN3CCC3)c(C3CCN(c4ncnc5c4CCC5)CC3)n2)cc1C(F)(F)F` [Compound A20, 4-{4-[1-(2-Azetidin-1-yl-ethyl)-4-(4-fluoro-3-trifluoromethyl-phenyl)-1H-imidazol-2-yl]-piperidin-1-yl}-6,7-dihydro-5H-cyclopentapyrimidine] the same measures were under 25 nM and under 25 nM.
`CN(C)CCn1cc(-c2ccc(F)c(Cl)c2)nc1C1CCN(c2ncnc3c2CCN3)CC1` [Compound A26, (2-{4-(3-Chloro-4-fluoro-phenyl)-2-[1-(6,7-dihydro-5H-pyrrolo[2,3-d]pyrimidin-4-yl)-piperidin-4-yl]-imidazol-1-yl}-ethyl)-dimethylamine]: the 50% inhibitory concentration (IC50) (at His-AKT (Full Length); in experiment [1]) was under 25 nM in each case.
Consider `CN(C)CCn1cc(C(F)(F)F)nc1C1CCN(c2ncnc3c2NC(=O)CN3)CC1` [Compound A55, 4-{4-[4-(4-trifouromethyl)-1-(2-dimethylamino-1-yl-ethyl)-1H-imidazol-2-yl]-piperidin-1-yl}-7,8-dihydro-5H-pteridin-6-one], for which the IC50 (at His-AKT (Full Length); in experiment [1]) was over 1000 nM each time.
Regarding `COc1ccc(-c2cn(CCN3CCCC3)c(C3CCN(c4ncnc5c4NC(=O)CN5)CC3)n2)cc1` [Compound A61, 4-{4-[4-(4-MethoxyPhenyl)-1-(2-pyrrolidin-1-yl-ethyl)-1H-imidazol-2-yl]-piperidin-1-yl}-7,8-dihydro-5H-pteridin-6-one], the half-inhibitory concentration (IC50) on His-AKT (Full Length) is 501 to 1000 nM; in experiment [1], over 1000 nM.
For `CN(C)CCn1cc(-c2ccc(F)c(C(F)(F)F)c2)nc1C1CCN(c2ncnc3c2CCCN3)CC1` [Compound A32, (2-{4-(4-Fluoro-3-trifluoromethyl-phenyl)-2-[1-(5,6,7,8-tetrahydro-pyrido[2,3-d]pyrimidin-4-yl)-piperidin-4-yl]-imidazol-1-yl}-ethyl)-dimethylamine] the same measures were under 25 nM and under 25 nM.
The matching figures for `COc1cc(-c2cn(CCN(C)C)c(C3CCN(c4ncnc5c4OCCN5)CC3)n2)ccc1F` [Compound A8, {2-[2-[1-(7,8-Dihydro-6H-pyrimido[5,4-b][1,4]oxazin-4-yl)-piperidin-4-yl]-4-(4-fluoro-3-methoxy-phenyl)-imidazol-1-yl]-ethyl}-dimethylamine]: under 25 nM and under 25 nM.
The matching figures for `O=C1CNc2ncnc(N3CCC(c4nc(-c5ccccc5)cn4CCN4CCCC4)CC3)c2N1` [Compound A45, 4-{4-[4-Phenyl-1-(2-pyrrolidin-1-yl-ethyl)-1H-imidazol-2-yl]-piperidin-1-yl}-7,8-dihydro-5H-pteridin-6-one]: 501 to 1000 nM and 101 to 500 nM.
For the compound `Cc1ccc(-c2cn(CCN(C)C)c(C3CCN(c4ncnc5c4NC(=O)CN5)CC3)n2)cc1` [Compound A49, 4-{4-[4-(4-MethylPhenyl)-1-(2-dimethylamin-1-yl-ethyl)-1H-imidazol-2-yl]-piperidin-1-yl}-7,8-dihydro-5H-pteridin-6-one], the concentration for half-maximal inhibition (IC50) on His-AKT (Full Length) is over 1000 nM; in experiment [1], 101 to 500 nM.
For `Cc1cc(-c2cn(CCN(C)C)c(C3CCN(c4ncnc5c4CCCN5)CC3)n2)ccc1F` [Compound A33, (2-{4-(4-Fluoro-3-methyl-phenyl)-2-[1-(5,6,7,8-tetrahydro-pyrido[2,3-d]pyrimidin-4-yl)-piperidin-4-yl]-imidazol-1-yl}-ethyl)-dimethylamine] the same measures were under 25 nM and under 25 nM.
The matching figures for `COc1cc(-c2cn(CCN3CCC3)c(C3CCN(c4ncnc5c4CCC5)CC3)n2)ccc1F` [Compound A22, 4-{4-[1-(2-Azetidin-1-yl-ethyl)-4-(4-fluoro-3-methoxy-phenyl)-1H-imidazol-2-yl]-piperidin-1-yl}-6,7-dihydro-5H-cyclopentapyrimidine]: under 25 nM and under 25 nM.
The matching figures for `Cc1cccc(-c2cn(CCN(C)C)c(C3CCN(c4ncnc5c4NC(=O)CN5)CC3)n2)c1` [Compound A54, 4-{4-[4-(3-MethylPhenyl)-1-(2-dimethylamin-1-yl-ethyl)-1H-imidazol-2-yl]-piperidin-1-yl}-7,8-dihydro-5H-pteridin-6-one]: 101 to 500 nM and 26 to 100 nM.
`CN(C)CCn1cc(-c2ccc(F)c(Cl)c2)nc1C1CCN(c2ncnc3c2CCCN3)CC1` [Compound A35, (2-{4-(3-Chloro-4-fluoro-phenyl)-2-[1-(5,6,7,8-tetrahydro-pyrido[2,3-d]pyrimidin-4-yl)-piperidin-4-yl]-imidazol-1-yl}-ethyl)-dimethylamine]: the IC50 (at His-AKT (Full Length); in experiment [1]) was under 25 nM each time.
